Assay results as given in patent US20230265151A1, “GIP/GLP1 CO-AGONIST COMPOUNDS” (priority 2020, published 2023).
Read-outs that look alike come from different tables or passages of the source. *1 amine or outer side, *2 acyl side, *3 side chain or, on linkers, in order; H or OH if unused. Where a SMILES comes first, the peptide text is derived from it. Side-chain parts run from the residue outwards. [ ]: non-standard residue; d: D form. The star is where a group is joined. Decanoyl(10-(4-HOOC-PhO)) = O=C(O)c1ccc(OCCCCCCCCCC(=O)*)cc1; αMePhe(2-F) = C[C@](N)(Cc1ccccc1F)C(=O)O; γGlu = O=C(O)[C@H](CCC(=O)[*:2])N[*:1]; αMeY = C[C@](N)(Cc1ccc(O)cc1)C(=O)O; 4Pal = N[C@@H](Cc1ccncc1)C(=O)O; αMeL = CC(C)C[C@](C)(N)C(=O)O; Orn = NCCC[C@H](N)C(=O)O; AEEA = NCCOCCOCC(=O)O; Aib = CC(C)(N)C(=O)O

Tests used:
Assay type in all cases: cell-based
hGCGR = target: T1, hGCGR (Homo sapiens, UniProt P47871); test: Functional cAMP formation (HTRF) in HEK-293 clonal cells expressing hGCGR, 0.1% bovine casein, without or with 1.0% human serum albumin; conditions: hGCGR EC50, nM (SEM, n), geometric mean
T1 construct: expressed in transfected cells
T1 sequence (P47871 26-477): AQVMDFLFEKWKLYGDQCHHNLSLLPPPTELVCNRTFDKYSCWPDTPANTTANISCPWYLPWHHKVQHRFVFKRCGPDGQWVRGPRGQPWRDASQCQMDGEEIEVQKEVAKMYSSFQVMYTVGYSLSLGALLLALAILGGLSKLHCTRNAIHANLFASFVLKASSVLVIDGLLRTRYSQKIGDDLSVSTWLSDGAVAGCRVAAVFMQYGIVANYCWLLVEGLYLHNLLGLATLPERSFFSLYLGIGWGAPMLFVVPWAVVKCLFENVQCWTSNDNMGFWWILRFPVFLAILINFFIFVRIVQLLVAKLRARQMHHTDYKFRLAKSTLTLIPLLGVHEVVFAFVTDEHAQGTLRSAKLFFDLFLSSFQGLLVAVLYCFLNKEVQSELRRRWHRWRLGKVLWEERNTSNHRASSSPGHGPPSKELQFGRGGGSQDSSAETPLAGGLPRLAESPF
How it was run: (§1)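 Cells were stimulated with peptide for 30 min at 37° C, then intracellular cAMP was measured by competitive HTRF (665/620 nm ratio) and converted to nM using a cAMP standard curve. Relative EC50 and Emax came from four-parameter logistic fits of percent maximal response against peptide concentration.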

hGLP-1R = hGLP-1R (Homo sapiens, UniProt P43220); test: Functional cAMP formation (HTRF) in HEK-293 clonal cells expressing hGLP-1R, 0.1% bovine casein, without or with 1.0% human serum albumin; set-up: expressed in transfected cells; conditions: for EC50: hGLP-1R EC50, nM (SEM, n), geometric mean
Sequence of hGLP-1R (P43220 24-463): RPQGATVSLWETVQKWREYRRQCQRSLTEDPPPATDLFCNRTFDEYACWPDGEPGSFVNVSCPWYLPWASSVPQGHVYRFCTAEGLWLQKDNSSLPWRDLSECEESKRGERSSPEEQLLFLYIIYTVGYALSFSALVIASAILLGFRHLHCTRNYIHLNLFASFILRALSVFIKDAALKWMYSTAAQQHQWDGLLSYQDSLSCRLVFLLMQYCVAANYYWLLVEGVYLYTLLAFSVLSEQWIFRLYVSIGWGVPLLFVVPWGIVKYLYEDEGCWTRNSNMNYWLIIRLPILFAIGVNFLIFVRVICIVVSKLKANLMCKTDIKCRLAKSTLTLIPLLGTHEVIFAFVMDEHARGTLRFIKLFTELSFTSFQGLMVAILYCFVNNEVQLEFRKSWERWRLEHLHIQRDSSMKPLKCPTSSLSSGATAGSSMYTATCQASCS
How it was run: as §1

hGIPR = target: T2, hGIPR (Homo sapiens, UniProt P48546); test: Functional cAMP formation (HTRF) in HEK-293 clonal cells expressing hGIPR, 0.1% bovine casein, without or with 1.0% human serum albumin; conditions: for EC50: hGIPR EC50, nM (SEM, n), cAMP, incubated at 37° C., 0.1% bovine casein (no human serum albumin), geometric mean
T2 construct: expressed in transfected cells
T2 sequence (P48546 22-466): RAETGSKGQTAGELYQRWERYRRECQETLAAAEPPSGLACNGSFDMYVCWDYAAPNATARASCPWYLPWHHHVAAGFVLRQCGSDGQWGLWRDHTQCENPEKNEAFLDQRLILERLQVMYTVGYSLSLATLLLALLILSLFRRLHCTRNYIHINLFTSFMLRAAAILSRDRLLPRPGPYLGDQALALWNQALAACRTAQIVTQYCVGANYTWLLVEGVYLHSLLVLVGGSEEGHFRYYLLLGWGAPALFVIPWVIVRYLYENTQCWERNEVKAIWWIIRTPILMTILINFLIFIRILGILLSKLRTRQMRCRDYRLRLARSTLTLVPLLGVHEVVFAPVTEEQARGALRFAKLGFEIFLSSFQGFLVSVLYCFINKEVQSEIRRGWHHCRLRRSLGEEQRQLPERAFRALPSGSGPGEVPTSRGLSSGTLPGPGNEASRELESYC
How it was run: as §1

[1] = 0.1% bovine casein and 1.0% human serum albumin, 37° C.
[2] = cAMP, incubated at 37° C., 0.1% bovine casein (no human serum albumin)
[3] = HEK293, read-out: hGLP-1R Emax, % ± SEM, 0.1% bovine casein and 1.0% human serum albumin, 37° C., percent of maximal response to GLP-1(7-36)NH2
[4] = HEK293, read-out: hGIPR Emax, % ± SEM, 0.1% bovine casein and 1.0% human serum albumin, 37° C., percent of maximal response to GIP(1-42)NH2
[5] = HEK293, read-out: hGLP-1R Emax, % ± SEM, percent of maximal response to GLP-1(7-36)NH2, 37° C., 0.1% bovine casein, arithmetic mean

CC[C@H](C)[C@H](NC(=O)[C@H](CC(C)C)NC(=O)[C@](C)(Cc1ccc(O)cc1)NC(=O)[C@@H](CCC(=O)O)NC(=O)[C@@H](NC(=O)[C@H](Cc1ccccc1)NC(=O)[C@H](CCC(=O)O)NC(=O)C(C)(C)NC(=O)[C@H](CCC(N)=O)NC(=O)[C@H](C)NC(=O)[C@H](CCCCNC(=O)COCCOCCNC(=O)COCCOCCNC(=O)CC[C@H](NC(=O)CCCCCCCCCOc1ccc(C(=O)O)cc1)C(=O)O)NC(=O)[C@H](CCCN)NC(=O)[C@H](CC(=O)O)NC(=O)[C@H](CC(C)C)NC(=O)[C@](C)(CC(C)C)NC(=O)[C@@H](NC(=O)C(C)(C)NC(=O)[C@H](Cc1ccncc1)NC(=O)[C@H](CC(=O)O)NC(=O)[C@H](CO)NC(=O)[C@@H](NC(=O)[C@](C)(Cc1ccccc1F)NC(=O)[C@@H](NC(=O)CNC(=O)[C@H](CCC(=O)O)NC(=O)C(C)(C)NC(=O)[C@@H](N)Cc1ccc(O)cc1)[C@@H](C)O)[C@@H](C)O)[C@@H](C)CC)[C@@H](C)CC)C(=O)N[C@@H](CCCCNC(=O)COCCOCCNC(=O)COCCOCCNC(=O)CC[C@H](NC(=O)CCCCCCCCCOc1ccc(C(=O)O)cc1)C(=O)O)C(=O)NCC(=O)NCC(=O)N1CCC[C@H]1C(=O)N[C@@H](CO)C(=O)N[C@@H](CO)C(=O)NCC(=O)N[C@@H](C)C(=O)N1CCC[C@H]1C(=O)N1CCC[C@H]1C(=O)N1CCC[C@H]1C(=O)N[C@@H](CO)C(N)=O [Example 244]
EC50 (hGCGR; [1]): > 9950 nM
EC50 (hGCGR; [2]): > 9950 nM
Emax (hGLP-1R; [3]): 96.3%
EC50 (hGLP-1R; [2]): 2.25 nM
Emax (hGIPR; [4]): 89.5%
EC50 (hGIPR): 0.0218 nM

CC[C@H](C)[C@H](NC(=O)[C@H](CC(C)C)NC(=O)[C@](C)(Cc1ccc(O)cc1)NC(=O)[C@@H](CCC(=O)O)NC(=O)[C@@H](NC(=O)[C@H](Cc1ccccc1)NC(=O)[C@H](CCC(=O)O)NC(=O)C(C)(C)NC(=O)[C@H](CCC(N)=O)NC(=O)[C@H](C)NC(=O)[C@H](CCCCNC(=O)COCCOCCNC(=O)COCCOCCNC(=O)CC[C@H](NC(=O)CCCCCCCCCOc1ccc(C(=O)O)cc1)C(=O)O)NC(=O)[C@H](CCCN)NC(=O)[C@H](CC(=O)O)NC(=O)[C@H](CC(C)C)NC(=O)[C@](C)(CC(C)C)NC(=O)[C@@H](NC(=O)C(C)(C)NC(=O)[C@H](Cc1ccncc1)NC(=O)[C@H](CC(=O)O)NC(=O)[C@H](CO)NC(=O)[C@@H](NC(=O)[C@](C)(Cc1ccccc1F)NC(=O)[C@@H](NC(=O)CNC(=O)[C@H](CCC(=O)O)NC(=O)C(C)(C)NC(=O)[C@@H](N)Cc1ccc(O)cc1)[C@@H](C)O)[C@@H](C)O)[C@@H](C)CC)[C@@H](C)CC)C(=O)N[C@@H](CCC(=O)O)C(=O)NCC(=O)NCC(=O)N1CCC[C@H]1C(=O)N[C@@H](CO)C(=O)N[C@@H](CO)C(=O)NCC(=O)N[C@@H](C)C(=O)N1CCC[C@H]1C(=O)N1CCC[C@H]1C(=O)N1CCC[C@H]1C(=O)N[C@@H](CO)C(=O)N[C@@H](CCCCNC(=O)COCCOCCNC(=O)COCCOCCNC(=O)CC[C@H](NC(=O)CCCCCCCCCOc1ccc(C(=O)O)cc1)C(=O)O)C(N)=O [Example 245]
EC50 (hGCGR; [1]): > 9950 nM
EC50 (hGCGR; [2]): > 9950 nM
Emax (hGLP-1R; [3]): 93.8%
Emax (hGLP-1R; [5]): 88.9%
EC50 (hGLP-1R; [1]): 27 nM
EC50 (hGLP-1R; [2]): 1.88 nM
Emax (hGIPR; [4]): 81.9%
Emax (hGIPR; HEK293, read-out: hGIPR Emax, % ± SEM, percent of maximal response to GIP(1-42)NH2, 37° C., 0.1% bovine casein, arithmetic mean): 96.7%
EC50 (hGIPR): 0.0195 nM

CC[C@H](C)[C@H](NC(=O)[C@H](CCCN)NC(=O)[C@H](CC(=O)O)NC(=O)[C@H](CC(C)C)NC(=O)[C@](C)(CC(C)C)NC(=O)[C@@H](NC(=O)C(C)(C)NC(=O)[C@H](Cc1ccncc1)NC(=O)[C@H](CC(=O)O)NC(=O)[C@H](CO)NC(=O)[C@@H](NC(=O)[C@](C)(Cc1ccccc1F)NC(=O)[C@@H](NC(=O)CNC(=O)[C@H](CCC(=O)O)NC(=O)C(C)(C)NC(=O)[C@@H](N)Cc1ccc(O)cc1)[C@@H](C)O)[C@@H](C)O)[C@@H](C)CC)C(=O)N[C@@H](C)C(=O)N[C@@H](CCC(N)=O)C(=O)NC(C)(C)C(=O)N[C@@H](CCCCNC(=O)COCCOCCNC(=O)COCCOCCNC(=O)CC[C@H](NC(=O)CCCCCCCCCOc1ccc(C(=O)O)cc1)C(=O)O)C(=O)N[C@@H](Cc1ccccc1)C(=O)N[C@H](C(=O)N[C@H](CCC(=O)O)C(=O)N[C@@](C)(Cc1ccc(O)cc1)C(=O)N[C@@H](CC(C)C)C(=O)N[C@H](C(=O)N[C@@H](CCCCNC(=O)COCCOCCNC(=O)COCCOCCNC(=O)CC[C@H](NC(=O)CCCCCCCCCOc1ccc(C(=O)O)cc1)C(=O)O)C(=O)NCC(=O)NCC(=O)N1CCC[C@H]1C(=O)N[C@@H](CO)C(=O)N[C@@H](CO)C(=O)NCC(=O)N[C@@H](C)C(=O)N1CCC[C@H]1C(=O)N1CCC[C@H]1C(=O)N1CCC[C@H]1C(=O)N[C@@H](CO)C(N)=O)[C@@H](C)CC)[C@@H](C)CC [Example 247]
EC50 (hGCGR; [1]): > 9950 nM
EC50 (hGCGR; [2]): > 9950 nM
Emax (hGLP-1R; [3]): 109%
EC50 (hGLP-1R; [2]): 1 nM
Emax (hGIPR; [4]): 90.2%
EC50 (hGIPR): 0.022 nM

CC[C@H](C)[C@H](NC(=O)[C@H](CCCN)NC(=O)[C@H](CC(=O)O)NC(=O)[C@H](CC(C)C)NC(=O)[C@](C)(CC(C)C)NC(=O)[C@@H](NC(=O)C(C)(C)NC(=O)[C@H](Cc1ccncc1)NC(=O)[C@H](CC(=O)O)NC(=O)[C@H](CO)NC(=O)[C@@H](NC(=O)[C@](C)(Cc1ccccc1F)NC(=O)[C@@H](NC(=O)CNC(=O)[C@H](CCC(=O)O)NC(=O)C(C)(C)NC(=O)[C@@H](N)Cc1ccc(O)cc1)[C@@H](C)O)[C@@H](C)O)[C@@H](C)CC)C(=O)N[C@@H](C)C(=O)N[C@@H](CCC(N)=O)C(=O)NC(C)(C)C(=O)N[C@@H](CCCCNC(=O)COCCOCCNC(=O)COCCOCCNC(=O)CC[C@H](NC(=O)CCCCCCCCCOc1ccc(C(=O)O)cc1)C(=O)O)C(=O)N[C@@H](Cc1ccccc1)C(=O)N[C@H](C(=O)N[C@H](CCC(=O)O)C(=O)N[C@@](C)(Cc1ccc(O)cc1)C(=O)N[C@@H](CC(C)C)C(=O)N[C@H](C(=O)N[C@@H](CCC(=O)O)C(=O)NCC(=O)NCC(=O)N1CCC[C@H]1C(=O)N[C@@H](CO)C(=O)N[C@@H](CO)C(=O)NCC(=O)N[C@@H](C)C(=O)N1CCC[C@H]1C(=O)N1CCC[C@H]1C(=O)N1CCC[C@H]1C(=O)N[C@@H](CO)C(=O)N[C@@H](CCCCNC(=O)COCCOCCNC(=O)COCCOCCNC(=O)CC[C@H](NC(=O)CCCCCCCCCOc1ccc(C(=O)O)cc1)C(=O)O)C(N)=O)[C@@H](C)CC)[C@@H](C)CC [Example 248] (H-Y[Aib]EGT[αMePhe(2-F)]TSD[4Pal][Aib]I[αMeL]LD[Orn]IAQ[Aib]K([AEEA-AEEA-γGlu-Decanoyl(10-(4-HOOC-PhO))])FI[dE][αMeY]LIEGGPSSGAPPPSK([AEEA-AEEA-γGlu-Decanoyl(10-(4-HOOC-PhO))])-NH2; N-terminus assumed)
EC50 (hGCGR; [1]): > 9950 nM
EC50 (hGCGR; [2]): > 9950 nM
Emax (hGLP-1R; [5]): 89.1%
EC50 (hGLP-1R; [1]): 56.7 nM
EC50 (hGLP-1R; [2]): 0.537 nM
Emax (hGIPR; [4]): 91.8%
EC50 (hGIPR): 0.0176 nM
